In the experiment the test system is RSV (RSS strain). In words: RSV ELISA antigen reduction assay in Hep-2 cells. In kind it is cell-based, Respiratory Syncytial Virus. The note with it: RSV-infected Hep-2 cells, 3 day assay, ELISA OD 490 nm, 7-point dilution 50 μM-0.78 μM. On the procedure: This was quantified by optical density (OD) measurement.
This assay was set up using all 96 wells of flat-bottomed 96-well plates. The outer wells were not subjected to any greater amount of evaporation than the inner wells during the 3 day assay period. (i.e. No “edge effect” seen).
Plates were set up one day before addition of virus and compounds. The assay then ran for 3 days with ELISA development taking place on the 4th day.
All 96 wells of a microtitre plate were seeded at a density of 4×10^3 Hep-2 cells/well in 100 μl/well of Growth Medium (GM) consisting of Dulbecco's MEM (DMEM) with Glutamax-1, Sodium Pyruvate, 1000 mg/l glucose and pyridoxine (Invitrogen, catalogue number 21885-025) and supplemented with 10% FBS. (See Plate 1).
A frozen vial of RSV (RSS strain provided by Virogen Ltd) stock solution was removed from the −80 freezer or liquid nitrogen store and diluted to a known Multiplicity of Infection (m.o.i) in Growth Medium.
The m.o.i. was calculated by prior titration of the virus stock (by the ELISA assay method) as the virus input required to achieve a window of at least 0.8 OD units between infected and uninfected control wells.
50 μl of diluted virus was added to infected, “virus+”, wells by multichannel pipette; 50 μl of Growth Medium was added to uninfected, cell control wells (CC) by multichannel pipette. (See Plate 2)
Plates were incubated at 37° C. for 1 hr to allow virus adsorption.
Compounds were made up at 4× strength in GM containing 2% DMSO (a final DMSO concentration in the assay of 0.5%).
Six compounds were tested on each assay plate as illustrated below. (See Plate 3). Compounds were tested in duplicate wells across a 7-point dilution series (from 50 μM-0.78 μM): in the presence of virus.
Virus infected, untreated wells served as the virus control (VC); Uninfected, untreated wells serve as the cell control (CC). The difference in absorbance between CC and VC wells constitutes the assay window.
200 μl of GM containing 2% DMSO was added to all wells except the ‘50 μM’ or first column, to which 392 μl of GM was added. 8 μl of each test compound was cherry-picked from a thawed Arrow screening plate and transferred to the appropriate well in the ‘50 μM’ column. Since the compound stock was at 10 mM in 100% DMSO, this will maintain the DMSO level at 2% at the top compound concentration.
Using a multichannel pipette, 200 μl was transferred from the 50 μM column to the 25 μM column, then to the 12.5 μM column and so on across the dilution plate creating a serial doubling dilution. Compounds were mixed upon transfer and tips changed between transfers, ensuring also that no compound was transferred to the last column of compound-free wells (0 μM).
The dilution plate was turned lengthways and 50 μl of compound easily transferred by multichannel pipette from the dilution plate to the assay plate, column by column. There was therefore an excess of 100 μl remaining in the dilution plate.
Plates were incubated at 37° C., 5% CO2 for 3 days.
Media was tapped out from wells directly into Virkon (1% solution in water) and plates were washed by immersing in a plastic box containing PBS. 50 μl/well of 75%/25% vol/vol acetone/methanol fixative was added by multichannel pipette and left for 3 mins.
Some 200 μl of blocking solution (2% Marvel in PBS containing 0.05% Tween) was added per well by multichannel pipette. Plates were incubated at 37° C. in a shaking incubator for 60 mins.
RSV mouse monoclonal antibody NCL-RSV3 (Novocastra) was diluted 1/400 in PBS/2% Marvel/0.05% Tween and 50 μl was added per well. Plates were incubated at 37° C. in a shaking incubator for 90 mins.
DAKo rabbit anti-mouse HRP conjugate (DAKO catalogue number P0260) was diluted 1/1000 in PBS/2% Marvel/0.05% Tween and 50 μl was added per well. Plates were incubated at 37° C. in a shaking incubator for 60 mins.
Substrate (SigmaFast OPD) was prepared in advance by dissolving 1 urea tablet in 20 mL water. […]
Background: ELISA stands for enzyme-linked immunosorbent assay.

[1] abbreviates: human respiratory syncytial virus, 72 h.

pIC50: −log10 of the molar value. Bounds are passed on as bounds.

A word on the pIC50: it is the negative decadic logarithm of the IC50, by convention in mol/L. A lower pIC50 goes with a large IC50. With `O=C(N[C@H]1N=C(c2ccccc2)c2ccccc2NC1=O)c1cccc(S(=O)(=O)N2CCCCC2)c1` [Example 30, (S)—N-(2-Oxo-5-phenyl-2,3-dihydro-1H-benzo[e][1,4]diazepin-3-yl)-3-(piperidine-1-sulfonyl)-benzamide], the pIC50 under setting [1] is 5.00 to 5.30. In turn, `O=C(N[C@H]1N=C(c2ccccc2)c2ccccc2NC1=O)c1ccc(CO)o1` [Example 33, (S)-5-Hydroxymethyl-furan-2-carboxylic acid (2-oxo-5-phenyl-2,3-dihydro-1H-benzo[e][1,4]diazepin-3-yl)-amide] showed a pIC50 under setting [1] of 5.00 to 5.30. On the same count and under the same terms, next, `O=C(N[C@H]1N=C(c2ccccc2)c2ccccc2NC1=O)c1ccc(CN2CCS(=O)(=O)CC2)o1` [Example 34, (S)-5-(1,1-Dioxo-1λ6-thiomorpholin-4-ylmethyl)-furan-2-carboxylic acid (2-oxo-5-phenyl-2,3-dihydro-1H-benzo[e][1,4]diazepin-3-yl)-amide]: over 5.30; `O=C(N[C@H]1N=C(c2ccccc2)c2ccccc2NC1=O)c1cccc(CN2CCOCC2)c1` [Example 42, (S)-3-Morpholin-4-ylmethyl-N-(2-oxo-5-phenyl-2,3-dihydro-1H-benzo[e][1,4]diazepin-3-yl)-benzamide]: over 5.30. In the case of `CN(CCS(C)(=O)=O)Cc1ccc(C(=O)N[C@H]2N=C(c3ccccc3)c3ccccc3NC2=O)o1` [Example 37], the pIC50 was over 5.30. On to `CN1CCN(Cc2ccc(C(=O)N[C@H]3N=C(c4ccccc4)c4ccccc4NC3=O)o2)CC1` [Example 8, (S)-5-(4-Methyl-piperazin-1-ylmethyl)-furan-2-carboxylic acid (2-oxo-5-phenyl-2,3-dihydro-1H-benzo[e][1,4]diazepin-3-yl)-amide], for which the pIC50 under setting [1] is over 5.30. Consider `O=C(N[C@H]1N=C(c2ccccc2)c2ccccc2NC1=O)c1ccc(N2CCS(=O)(=O)CC2)cc1Cl` [Example 35, (S)-2-Chloro-4-(1,1-dioxo-1λ6-thiomorpholin-4-yl)-N-(2-oxo-5-phenyl-2,3-dihydro-1H-benzo[e][1,4]diazepin-3-yl)-benzamide], for which the pIC50 under setting [1] was over 5.30. In turn, “(S)-5-Pyrrolidin-1-ylmethyl-furan-2-carboxylic acid (2-oxo-5-phenyl-2,3-dihydro-1H-benzo[e][1,4]diazepin-3-yl)-amide [Example 9]” had a pIC50 of 5.00 to 5.30.

For `O=C(N[C@H]1N=C(c2ccccc2)c2ccccc2NC1=O)c1cccc(S(=O)(=O)N2CCOCC2)c1` [Example 31, (S)-3-(Morpholine-4-sulfonyl)-N-(2-oxo-5-phenyl-2,3-dihydro-1H-benzo[e][1,4]diazepin-3-yl)-benzamide], the pIC50 under setting [1] was 5.00 to 5.30.

Turning to `O=C(N[C@H]1N=C(c2ccccc2)c2ccccc2NC1=O)c1occc1CN1CCOCC1` [Example 44, (S)-3-Morpholin-4-ylmethyl-furan-2-carboxylic acid (2-oxo-5-phenyl-2,3-dihydro-1H-benzo[e][1,4]diazepin-3-yl)-amide], the pIC50 under setting [1] was 5.00 to 5.30. Under setting [1], `O=C1Nc2ccccc2C(c2ccccc2)=N[C@@H]1NC(=O)n1c(=O)n(C2CC2)c2ncccc21` [Example 27, (S)-3-Cyclopropyl-2-oxo-2,3-dihydro-imidazo[4,5-b]pyridine-1-carboxylic acid (2-oxo-5-phenyl-2,3-dihydro-1H-benzo[e][1,4]diazepin-3-yl)-amide] showed a negative-log IC50 (pIC50) of under 5.00. With `O=C(N[C@H]1N=C(c2ccccc2)c2ccccc2NC1=O)c1ccc(CN2CCCCC2)o1` [Example 10, (S)-5-Piperidin-1-ylmethyl-furan-2-carboxylic acid (2-oxo-5-phenyl-2,3-dihydro-1H-benzo[e][1,4]diazepin-3-yl)-amide], the pIC50 under setting [1] is over 5.30. Under setting [1], `O=C(N[C@H]1N=C(c2ccccc2)c2ccccc2NC1=O)c1cc(N2CCS(=O)(=O)CC2)ccc1Cl` [Example 36, (S)-2-Chloro-5-(1,1-dioxo-1λ6-thiomorpholin-4-yl)-N-(2-oxo-5-phenyl-2,3-dihydro-1H-benzo[e][1,4]diazepin-3-yl)-benzamide] had a pIC50 of over 5.30. `Cc1cccc(N2CCS(=O)(=O)CC2)c1C(=O)N[C@H]1N=C(c2ccccc2)c2ccccc2NC1=O` [Example 25, (S)-2-(1,1-Dioxo-1λ6-thiomorpholin-4-yl)-6-methyl-N-(2-oxo-5-phenyl-2,3-dihydro-1H-benzo[e][1,4]diazepin-3-yl)-benzamide] gave a pIC50 under setting [1] of under 5.00. The same measure, in the same setting: next, `O=C(N[C@H]1N=C(c2ccccc2)c2ccccc2NC1=O)c1ccc(N2CCOCC2)nc1` [Example 47, (S)-6-Morpholin-4-yl-N-(2-oxo-5-phenyl-2,3-dihydro-1H-benzo[e][1,4]diazepin-3-yl)-nicotinamide]: over 5.30; `O=C(N[C@H]1N=C(c2ccccc2)c2ccccc2NC1=O)c1csc(-c2cccnc2)n1` [Example 38, (S)-2-Pyridin-3-yl-thiazole-4-carboxylic acid (2-oxo-5-phenyl-2,3-dihydro-1H-benzo[e][1,4]diazepin-3-yl)-amide]: over 5.30. `O=C(N[C@H]1N=C(c2ccccc2)c2ccccc2NC1=O)c1ccccc1N1CCS(=O)(=O)CC1` [Example 3]: the negative logarithm of the IC50 (pIC50) is 5.00 to 5.30. `CN1CCN(c2ccc(C(=O)N[C@H]3N=C(c4ccccc4)c4ccccc4NC3=O)cc2)CC1` [Example 29, (S)-4-(4-Methyl-piperazin-1-yl)-N-(2-oxo-5-phenyl-2,3-dihydro-1H-benzo[e][1,4]diazepin-3-yl)-benzamide] showed a negative logarithm of the IC50 (pIC50) under setting [1] of over 5.30. The same measure, in the same setting: to `CN1CCN(S(=O)(=O)c2cccc(C(=O)N[C@H]3N=C(c4ccccc4)c4ccccc4NC3=O)c2)CC1` [Example 28, (S)-3-(4-Methyl-piperazine-1-sulfonyl)-N-(2-oxo-5-phenyl-2,3-dihydro-1H-benzo[e][1,4]diazepin-3-yl)-benzamide] belongs under 5.00. In the case of `CN(C)Cc1ccc(C(=O)N[C@H]2N=C(c3ccccc3)c3ccccc3NC2=O)o1` [Example 11, (S)-5-Dimethylaminomethyl-furan-2-carboxylic acid (2-oxo-5-phenyl-2,3-dihydro-1H-benzo[e][1,4]diazepin-3-yl)-amide], the pIC50 under setting [1] is over 5.30. In turn, `O=C(N[C@H]1N=C(c2ccccc2)c2ccccc2NC1=O)c1ccc(F)cc1N1CCOCC1` [Example 13, (S)-4-Fluoro-2-morpholino-4-yl-N-(2-oxo-5-phenyl-2,3-dihydro-1H-benzo[e][1,4]diazepin-3-yl)-benzamide] showed a pIC50 of 5.00 to 5.30. Under setting [1], `Cc1cccc(C(=O)N[C@H]2N=C(c3ccccc3)c3ccccc3NC2=O)c1N1CCS(=O)(=O)CC1` [Example 23, (S)-2-(1,1-Dioxo-1λ6-thiomorpholin-4-yl)-3-methyl-N-(2-oxo-5-phenyl-2,3-dihydro-1H-benzo[e][1,4]diazepin-3-yl)-benzamide] gave a pIC50 of over 5.30. The same measure, in the same setting: to `O=C(N[C@H]1N=C(c2ccccc2)c2ccccc2NC1=O)c1ccc(CN2CCOCC2)s1` [Example 49, (S)-5-Morpholin-4-ylmethyl-thiophene-2-carboxylic acid (2-oxo-5-phenyl-2,3-dihydro-1H-benzo[e][1,4]diazepin-3-yl)-amide] belongs over 5.30.

On to `O=C(Nc1ccc(Oc2ccccc2)cc1)NC1N=C(c2ccccc2)c2ccccc2NC1=O` (racemic) [Example 52, 1-(2-Oxo-5-phenyl-2,3-dihydro-1H-benzo[e][1,4]diazepin-3-yl)-3-(4-phenoxy-phenyl)-urea], for which, under setting [1], the pIC50 was 5.00 to 5.30.
